From patent US20160137639A1, “TRIAZOLE-ISOXAZOLE COMPOUND AND MEDICAL USE THEREOF” (JAPAN TOBACCO INC., priority 2012, published 2016)
Where two headings read alike, the source gives them in different places.

Experiments:
mouse RORγ = target: T1, mouse RORγ (Mus musculus, UniProt P51450); experiment: Luciferase reporter gene assay of inhibitory effect against RORγ transcriptional activity (GAL4-mRORγ plasmid in CHO cells); format: cell-based
T1 construct: mouse, NM_011281.2 and from Ile251 to Lys516; expressed in transfected cells; host or cells: CHO cells (transient co-transfection with pG5-Luc reporter)
T1 sequence (P51450 251-516): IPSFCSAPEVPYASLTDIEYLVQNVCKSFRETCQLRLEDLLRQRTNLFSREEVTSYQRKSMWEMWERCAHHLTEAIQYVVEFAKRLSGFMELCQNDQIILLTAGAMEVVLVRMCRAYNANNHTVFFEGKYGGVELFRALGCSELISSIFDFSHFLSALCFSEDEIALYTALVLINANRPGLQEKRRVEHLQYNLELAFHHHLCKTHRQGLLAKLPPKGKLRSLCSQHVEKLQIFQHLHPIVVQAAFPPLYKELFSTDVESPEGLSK
Summary of the method: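 Readout is intracellular luciferase after 2-day compound exposure (8 concentrations, 0.1% DMSO) in CHO cells expressing GAL4 fused to mouse RORγ LBD residues Ile251–Lys516 plus pG5-Luc reporter. EC50 fitted from %-of-control; points showing resazurin-detected cytotoxicity dropped.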

human RORγ = target: T2, human RORγ (Homo sapiens, UniProt P51449); experiment: Luciferase reporter gene assay of inhibitory effect against RORγ transcriptional activity (GAL4-hRORγ plasmid in CHO cells); format: cell-based
T2 construct: human, NM_005060.3 and from Ser253 to Lys518; expressed in transfected cells; host or cells: CHO cells (transient co-transfection with pG5-Luc reporter)
T2 sequence (P51449 253-518): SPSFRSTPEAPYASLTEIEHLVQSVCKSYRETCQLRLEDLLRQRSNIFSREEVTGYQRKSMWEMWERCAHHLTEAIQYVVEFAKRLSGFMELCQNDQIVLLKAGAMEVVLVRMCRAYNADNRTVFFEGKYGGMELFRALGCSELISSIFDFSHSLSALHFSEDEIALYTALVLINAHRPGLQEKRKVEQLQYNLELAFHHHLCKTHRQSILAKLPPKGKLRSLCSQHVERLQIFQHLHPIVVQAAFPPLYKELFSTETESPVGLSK

Compound | EC50 (mouse RORγ; read-out: LUC EC50 (μM) mRORg) [µM] | EC50 (human RORγ; read-out: LUC EC50 (μM) hRORg) [µM] | EC50 (mouse RORγ; read-out: LUC EC50 mRORg) [µM] | EC50 (human RORγ; read-out: LUC EC50 hRORg) [µM]
CC(C)CCc1nnc(CCC(=O)Nc2ccccc2)n1C1CC1 [Example F-56] | > 3 | > 3 |  | 
Cc1ccc(NC(=O)C[C@H](CCC(=O)O)c2noc(-c3cc(CC(C)C)no3)c2C2CC2)c(Cl)c1 [Example E-04, (S)-5-(2-chloro-4-methyl-phenylcarbamoyl)-4-(4-cyclopropyl-3′-isobutyl-[5,5′]biisoxazolyl-3-yl)-pentanoic acid] | < 3 | < 3 |  | 
CC(C)(C)c1cc(-c2onc([C@@H](CCC(=O)O)CC(=O)Nc3ccc(Cl)cc3F)c2C2CC2)no1 [Example E-69] | < 3 | < 3 |  | 
Cc1c(Cl)cccc1NC(=O)CCc1nnc(CCC2CCCN(C(=O)OC(C)(C)C)C2)n1C1CC1 (racemic) [Example F-186] | < 3 | < 3 |  | 
CCOC(=O)/C=C/c1c(CCC(=O)Nc2ccc(C)cc2C)noc1[C@H]1C[C@@H](CC(C)C)C1 [Example F-645] |  |  | > 3 | > 3
Cc1ccc(NC(=O)C[C@H](CCC(=O)O)c2noc(-c3cc(C4CCCC4)on3)c2C2CC2)c(Cl)c1 [Example E-24] | < 3 | < 3 |  | 
CCn1c(CCC(=O)NC2CCCCC2)nnc1C1Cc2ccccc2C1 [Example F-21] | > 3 | > 3 |  | 
Cc1ccc(NC(=O)C(C)C(CCOCc2ccccc2)c2nnc([C@H]3C[C@@H](CC(C)C)C3)n2C2CC2)c(C)c1 (mixture of isomers) [Example F-488] | < 3 | > 3 |  | 
Cc1ccc(NC(=O)C[C@@H](c2nnc(CCCC(C)(C)C)n2C2CC2)N2CCCC2=O)c(C)c1 [Example F-403] | < 3 | < 3 |  | 
Cc1ccc(NC(=O)CCc2nnc([C@H]3C[C@@H](CC(C)C)C3)n2C2CC2)c(C)c1 [Example F-358] | < 3 | < 3 |  | 
Cc1ccc(NC(=O)CCc2nnc(CCC(C)C)n2C2CC2)c(C)c1 [Example F-79] | > 3 | > 3 |  | 
Cc1cccc(NC(=O)CCc2nnc(CCC(C)C)n2C2CC2)c1 [Example F-65] | > 3 | > 3 |  | 
Cc1cc(C(F)(F)F)ccc1NC(=O)C[C@H](CCO)c1nnc([C@H]2C[C@@H](CC(C)C)C2)n1C1CC1 [Example F-546] |  |  | < 3 | < 3
Cc1ccc(C2CC2)cc1NC(=O)CCc1nnc(CCC(C)C)n1C1CC1 [Example F-152] | > 3 | > 3 |  | 
Cc1ccc(C)c(NC(=O)CCc2nnc(CCC(C)C)n2C2CC2)c1 [Example F-71] | > 3 | > 3 |  | 
Cc1c(Cl)cccc1NC(=O)CCc1nnc(CCn2cccn2)n1C1CC1 [Example F-172] | > 3 | > 3 |  | 
CCn1c(CCC(=O)Nc2cccc3ccccc23)nnc1CC1CCCCC1 [Example F-17] | < 3 | > 3 |  | 
Cc1ccc(NC(=O)[C@H]2CN(CC(C)C)C[C@@H]2c2nnc([C@H]3C[C@@H](CC(C)C)C3)n2C2CC2)c(C)c1 [Example F-596] |  |  | < 3 | < 3
COc1cc(C)ccc1CNC(=O)[C@H]1CCC(=O)N(C)[C@@H]1c1nnc(CCCC(C)(C)C)n1C1CC1 [Example F-323] | < 3 | < 3 |  | 
Cc1ccc(CNC(=O)CCc2nnc(CCC(C)C)n2C2CC2)c(C)c1 [Example F-119] | < 3 | < 3 |  | 
CCC(CC)C[C@H]1C[C@H](c2nnc(CCC(=O)Nc3ccc(C)cc3C)n2C2CC2)C1 [Example F-495] | < 3 | < 3 |  | 
Cc1ccc(Br)cc1NC(=O)CCc1nnc(CCC(C)C)n1C1CC1 [Example F-140] | > 3 | > 3 |  | 
CCC(=O)N1C[C@H](C(=O)Nc2ccc(C)cc2C)[C@@H](c2nnc(CCCC(C)(C)C)n2C2CC2)C1 (racemic) [Example F-400] | < 3 | < 3 |  | 
CC(C)C[C@H]1C[C@@H](c2nnc([C@@H](CCO)CC(=O)NCc3ccc(Cl)cc3Cl)n2C2CC2)C1 [Example F-521] |  |  | < 3 | < 3
Cc1ccc(NC(=O)[C@H]2CC(O)(C(F)(F)F)C[C@@H]2c2nnc([C@H]3C[C@@H](CC(C)C)C3)n2C2CC2)c(C)c1 (mixture of isomers) [Example F-545] |  |  | < 3 | < 3

Compound | EC50 (mouse RORγ; read-out: LUC EC50 (μM) mRORg) [µM] | EC50 (human RORγ; read-out: LUC EC50 (μM) hRORg) [µM] | EC50 (mouse RORγ; read-out: LUC EC50 mRORg) [µM] | EC50 (human RORγ; read-out: LUC EC50 hRORg) [µM]
CCn1c(CCC(=O)NCc2ccccc2)nnc1C1Cc2ccccc2C1 [Example F-22] | > 3 | > 3 |  | 
Cc1ccc(NC(=O)CCc2nnc(CCC3(C)CCCCC3)n2C2CC2)c(C)c1 [Example F-269] | < 3 | < 3 |  | 
Cc1c(Cl)cccc1NC(=O)CCc1nnc(C2CC(C)C2)n1C1CC1 (mixture of isomers) [Example F-168] | < 3 | > 3 |  | 
COc1cc(C)ccc1CNC(=O)CCc1nnc(CC[C@H]2CC[C@H](C)CC2)n1C1CC1 [Example F-241] | < 3 | < 3 |  | 
Cc1ccc(NC(=O)C[C@H](CC#N)c2nnc([C@H]3C[C@@H](CC(C)C)C3)n2C2CC2)c(C)c1 [Example F-465] | < 3 | < 3 |  | 
Cc1ccc(NC(=O)C[C@H](CCC(=O)O)c2noc3c2C(C)CCC3CCC(C)C)c(Cl)c1 (single isomer, unassigned) [Example F-690] |  |  | < 3 | > 3
CC(C)(C)C(F)(F)c1cc(-c2onc([C@@H](CCC(=O)O)CC(=O)Nc3ccc(Cl)cc3F)c2C2CC2)no1 [Example E-77] |  |  | < 3 | < 3
Cc1ccc(NC(=O)CC(c2nnc([C@H]3C[C@@H](CC(C)C)C3)n2C2CC2)C2CNC2)c(C)c1 (mixture of isomers) [Example F-468] | > 3 | > 3 |  | 
Cc1ccc(NC(=O)CCc2nnc(C3CC(CC(=O)OC(C)(C)C)C3)n2C2CC2)c(C)c1 (mixture of isomers) [Example F-427] | < 3 | > 3 |  | 
CC(=O)N1C[C@H](C(=O)Nc2ccc(C)cc2C)[C@@H](c2nnc([C@H]3C[C@@H](CC(C)(C)C)C3)n2C2CC2)C1 [Example F-461] | < 3 | < 3 |  | 
Cc1ccc(NC(=O)CCc2nnc(-c3ccc(O)cc3)n2C2CC2)c(C)c1 [Example F-442] | > 3 | > 3 |  | 
CC(=O)N1C[C@H](C(=O)Nc2ccc(C)cc2C)[C@@H](c2nnc(CCC3CCCCC3)n2C2CC2)C1 (racemic) [Example F-191] | < 3 | < 3 |  | 
CC(=O)N1C[C@H](C(=O)Nc2ccc(C)cc2C)[C@@H](c2nnc(CCOC(C)(C)C(F)(F)F)n2C2CC2)C1 (racemic) [Example F-325] | < 3 | < 3 |  | 
CC(=O)N1C[C@H](C(=O)Nc2ccc(Cl)cc2C)[C@@H](c2nnc([C@H]3C[C@@H](CC(C)(C)F)C3)n2C2CC2)C1 [Example F-611] |  |  | < 3 | < 3
Cc1ccc(NC(=O)[C@H]2CN(S(=O)(=O)C(F)(F)F)C[C@@H]2c2nnc(CCCC(C)(C)C)n2C2CC2)c(C)c1 (racemic) [Example F-398] | < 3 | < 3 |  | 
Cc1ccc(NC(=O)C[C@H](CCC(=O)O)c2onc(-c3cc(C(F)(F)C(C)(C)C)on3)c2C2CC2)c(Cl)c1 [Example E-52, Sodium (S)-5-(2-chloro-4-methyl-phenylcarbamoyl)-4-[4-cyclopropyl-5′-(1,1-difluoro-2,2-dimethylpropyl)-[3,3′]biisoxazolyl-5′-yl]pentanoate] | < 3 | < 3 |  | 
CC(=O)N1C[C@H](C(=O)Nc2ccc(C)cc2C)[C@@H](c2nnc(CCCC(C)(C)C)n2C2CC2)C1 [Example F-338] | < 3 | < 3 |  | 
CCn1c(C(O)CC(=O)Nc2cccc3ccccc23)nnc1C1Cc2ccccc2C1 (racemic) [Example F-34] | > 3 | > 3 |  | 
Cc1c(Cl)cccc1NC(=O)CCc1nnc(CN2C(=O)c3ccccc3C2=O)n1C1CC1 [Example F-209] | > 3 | > 3 |  | 
CC(=O)N1C[C@@H](C(=O)Nc2ccc(C)cc2C)[C@H](c2nnc(CCCC(C)(C)C)n2C2CC2)C1 [Example F-339] | > 3 | > 3 |  | 
CC(C)C[C@H]1C[C@@H](c2nnc([C@@H](CCO)CC(=O)Nc3ccc(Cl)cc3F)n2C2CC2)C1 [Example F-519] |  |  | < 3 | < 3
Cc1ccc(NC(=O)C[C@H](CCC(=O)O)c2noc([C@H]3C[C@@H](CCc4ccccc4)C3)c2C2CC2)c(Cl)c1 [Example F-700] |  |  | < 3 | < 3
CC(=O)N1C[C@H](C(=O)Nc2ccc(C)cc2C)[C@@H](c2nnc(C3CN(C(=O)N(C)C(C)C)C3)n2C2CC2)C1 (racemic) [Example F-419] | > 3 | > 3 |  | 
Cc1ccc(NC(=O)C[C@H](CCC(=O)O)c2noc(-c3cc(C(F)(F)C4(C)CC4)on3)c2C2CC2)c(Cl)c1 [Example E-51] | < 3 | < 3 |  | 
